Assay results published in US9675681B2, “Shortened purification process for the production of capsular Streptococcus pneumoniae polysaccharides” (priority 2007, dated 2017).

Assays:
R6X = assay: Microtiter plate lysis assay, strain R6X (wild type lytA); assay type: cell-based, S. pneumoniae; conditions: compound 0.1%, 15 min at 36° C.
Description: (§1) Mitrotiter Assay: A rapid microtiter plate assay was devised for examining lytA-dependent lysis of pneumococci by different detergents or surfactants. Two pairs of isogenic strains of S. pneumoniae were used in the assay; one member of each pair was wild type for the lytA gene while the other strain carried a deletion in the lytA gene Thus, if lysis were dependent on an active lytA function, that detergent would not lyse the mutant strains. The four strains, R6X, R6X ΔlytA, D39 and D39 ΔlytA, were cultivated in HySoy medium to approximately mid-log phase (OD600˜0.2-0.8; OD600=Optical Density at 600 nm). Cells were then centrifuged and cell pellets were resuspended in HySoy medium. To each well of the microtiter plate, 100 μL, of cell suspension was added, along with 10 μL, of detergent stocks or water as a control. After about 15 minutes at 36° C., the OD600 of the samples was measured with a Spectramax® spectrophotometer (Molecular Devices, Sunnyvale, Calif.).
(§2) Isogenic pairs of strains containing the lytA mutation were grown in a Hy-Soy based medium. The cells were harvested and dispensed into wells in a microttiter plate. The test compound was added and the culture was incubated. After 15 min at 36° C., the optical density (OD600) of each well was determined using a SpectraMax® plate reader (Molecular Devices, Sunnyvale, CALIF.)(see Tables 17 and 18, which summarize results from two separate tests for exemplary compounds).

R6X ΔlytA = assay: Microtiter plate lysis assay, strain R6X ΔlytA; assay type: cell-based, S. pneumoniae; conditions: compound 0.1%, 15 min at 36° C.
Description: as §1, §2

D39 = assay: Microtiter plate lysis assay, strain D39 (wild type lytA); assay type: cell-based, S. pneumoniae; conditions: compound 0.1%, 15 min at 36° C.
Protocol: as §1, with “Two pairs of isogenic strains of S. pneumoniae were used in the assay; one member of each pair was wild type for the lytA gene while the other strain carried a deletion in the lytA gene Thus, if lysis were dependent on an active lytA function, that detergent would not lyse the mutant strains.” left out
(§3) Isogenic pairs of strains containing the lytA mutation were grown in a Hy-Soy based medium. The cells were harvested and dispensed into wells in a microttiter plate. The test compound was added and the culture was incubated.

D39 ΔlytA = assay: Microtiter plate lysis assay, strain D39 ΔlytA; assay type: cell-based, S. pneumoniae; conditions: compound 0.1%, 15 min at 36° C.
Description: as §1, §2

[1] = tested on: Wild-type cells (R6X, D39); assay: Microtiter plate lysis assay, wild-type cells; assay type: cell-based, S. pneumoniae; conditions: freshly prepared or frozen and thawed cells; about 15 minutes at 36° C.
Description: as §1

[2] = tested on: ΔlytA cells (R6X ΔlytA, D39 ΔlytA); assay: Microtiter plate lysis assay, ΔlytA cells; assay type: cell-based, S. pneumoniae; conditions: freshly prepared or frozen and thawed cells; about 15 minutes at 36° C.
Description: as §1

[3] = tested on: Streptococcus pneumoniae cells; assay: Screening for non-animal derived lytic agents (serotypes 1 and 6B PS release by SEC-HPLC; lytA mutants); assay type: cell-based; conditions: screening studies with serotypes 1 and 6B and lytA mutants
Protocol: Cell Lysis: Compounds to be tested were added to fermentation broth at a final concentration of 0.1 to 0.01% (v/v) and the solution was allowed to incubate at 37° C. for one hour. The solution was then stored at 2-8° C. overnight. The following morning the solution was centrifuged to remove all cell debris. The cell-free broth was analyzed by SEC-HPLC to determine the concentration of released polysaccharide. The lysis could be performed at any temperature between 2-37° C., preferably at a pH range of 6.0-7.5. The concentration of the detergent was typically between 0.05-0.2% depending on the particular detergent.
S. pneumoniae serotypes 1 and 6B were separately grown in Hy-Soy based media. The cultures were separately harvested and separately dispensed into tubes. […] After overnight incubation, the tubes were centrifuged and the PS content of the lysates for each serotype were determined by SEC-HPLC and compared to DOC.
as §3

Row | Molecule | Change in OD600, R6X (R6X; Test 1) [%] | Change in OD600, R6X (R6X; Test 2) [%] | Change in OD600, R6X ΔlytA (R6X ΔlytA; Test 1) [%] | Change in OD600, R6X ΔlytA (R6X ΔlytA; Test 2) [%] | Change in OD600, D39 (D39; Test 1) [%] | Change in OD600, D39 (D39; Test 2) [%] | Change in OD600, D39 ΔlytA (D39 ΔlytA; Test 1) [%] | Change in OD600, D39 ΔlytA (D39 ΔlytA; Test 2) [%] | Lysis of wild-type cells (OD600 versus medium blank) [1] | Lysis of ΔlytA cells [2] | Lytic activity compared to DOC (outcome of the screening studies) [3]
1 | C[C@H](CCC(=O)O)[C@H]1CC[C@H]2[C@@H]3CC[C@@H]4C[C@H](O)CC[C@]4(C)[C@H]3C[C@H](O)[C@]12C [Deoxycholic acid] | 100 | 103 | 34 | 20 | 99 | 101 | 47 | 41 |  |  | 
2 | CCCCCCC(=O)O [Heptanoic acid] | 25 |  | −57 |  | 7 |  | −30 |  |  |  | 
3 | C[C@H](CCC(=O)O)[C@H]1CC[C@H]2[C@@H]3CC[C@@H]4C[C@H](O)CC[C@]4(C)[C@H]3CC[C@]12C [Lithocholic acid] | 20 |  | 16 |  | 8 |  | −2 |  |  |  | 
4 | CCCCCCCCCCCCN(C)CC(=O)O [N-lauryl sarcosine] | 100 | 102 | −34 | −40 | 89 | 101 | −44 | 14 | lysis had occurred | did not lyse | non-animal derived lytic agent alternatives to DOC
5 | CCCCCCCCS(=O)(=O)O [Octanesulfonic acid] | 43 | 13 | 6 | 3 | 34 | 18 | 16 | −3 |  |  | 
6 | CCCCCCCCCCCCOS(=O)(=O)[O-].[Na+] [SDS, sodium dodecyl sulfate] | 99 | 102 | 28 | −13 | 95 | 100 | 36 | 16 | lysis had occurred | did not lyse | non-animal derived lytic agent alternatives to DOC
7 | CCCCCCCC/C=C\CCCCCCCC(=O)OCCOCC(OCCO)C1OCC(OCCO)C1OCCO (centres unmarked) [Tween 80] | 36 |  | 14 |  | 20 |  | 19 |  |  |  | 
8 | C[C@H](CCC(=O)O)[C@H]1CC[C@H]2[C@@H]3[C@H](O)C[C@@H]4C[C@H](O)CC[C@]4(C)[C@H]3CC[C@]12C [chenodeoxycholate] |  |  |  |  |  |  |  |  |  |  | non-animal derived lytic agent alternatives to DOC
9 | C[C@H](CCC(=O)O)[C@H]1CC[C@H]2[C@@H]3[C@H](O)C[C@@H]4C[C@H](O)CC[C@]4(C)[C@H]3C[C@H](O)[C@]12C [cholate] |  |  |  |  |  |  |  |  |  |  | non-animal derived lytic agent alternatives to DOC
10 | CCCCCCCCCCS(=O)(=O)O [decanesulfonic acid] |  |  |  |  |  |  |  |  |  |  | non-animal derived lytic agent alternatives to DOC
11 | C[C@H](CCC(=O)NCC(=O)O)[C@H]1CC[C@H]2[C@@H]3CC[C@@H]4C[C@H](O)CC[C@]4(C)[C@H]3C[C@H](O)[C@]12C [glycodeoxycholate] |  |  |  |  |  |  |  |  |  |  | non-animal derived lytic agent alternatives to DOC
12 | C[C@H](CCC(=O)O)[C@H]1CC[C@H]2[C@@H]3C[C@H](O)[C@@H]4C[C@H](O)CC[C@]4(C)[C@H]3CC[C@]12C [hyodeoxycholate] |  |  |  |  |  |  |  |  |  |  | non-animal derived lytic agent alternatives to DOC
13 | CCCCCCCCCCCCN(CCC(=O)O)CCC(=O)O [lauryl iminodipropionate] |  |  |  |  |  |  |  |  |  |  | non-animal derived lytic agent alternatives to DOC
14 | C[C@H](CCC(=O)NCCS(=O)(=O)O)[C@H]1CC[C@H]2[C@@H]3[C@H](O)C[C@@H]4C[C@H](O)CC[C@]4(C)[C@H]3CC[C@]12C [taurochenodeoxycholate] |  |  |  |  |  |  |  |  |  |  | non-animal derived lytic agent alternatives to DOC
15 | C[C@H](CCC(=O)NCCS(=O)(=O)O)[C@H]1CC[C@H]2[C@@H]3CC[C@@H]4C[C@H](O)CC[C@]4(C)[C@H]3C[C@H](O)[C@]12C [taurodeoxycholate] |  |  |  |  |  |  |  |  |  |  | non-animal derived lytic agent alternatives to DOC
16 | Tauroglycocholic acid | 51 |  | −16 |  | 47 |  | −20 |  |  |  | 
17 | Triton ® X-100 | 91 | 101 | 22 | −19 | 97 | 100 | 30 | 4 | lysis had occurred | did not lyse | non-animal derived lytic agent alternatives to DOC
18 | tert-Octylphenoxy poly(oxyethylene)ethanol [Igepal® CA-630] |  |  |  |  |  |  |  |  |  |  | non-animal derived lytic agent alternatives to DOC
